Source: patent US20160318844A1, “PROSTACYCLIN COMPOUNDS, COMPOSITIONS AND METHODS OF USE THEREOF” (Insmed Incorporated, priority 2015, published 2016)
Where two headings read alike, the source gives them in different places.

Experiments:
EP2 prostanoid receptor = molecular target: T1, EP2 prostanoid receptor (Homo sapiens, UniProt P43116); assay: GloSensor cAMP assay in CHO-K1 cells co-transfected with the EP2 receptor; type: cell-based
T1 construct: host or cells: CHO-K1
Excerpt: cAMP is a second messenger involved in signal transduction of G-protein coupled receptors (GPCRs) acting through Gα-s and Gα-i proteins. Because the treprostinil receptor is a GPCR, the assay provides an indication of whether the respective prostacyclin compound (or metabolite thereof) binds its receptor and activates the GPCR cell signaling cascade. The GloSensorTM assay harnesses a genetically modified form of firefly luciferase into which a cAMP-binding protein moiety has been inserted. Upon binding of cAMP, a conformational change is induced leading to increased light output. The EP2 prostanoid receptor was cotransfected with the GioSensorm plasmid (Promega) into CHO-K cells as follows. CHO-K cells were harvested when the monoloayer was at 50-90% confluence. First, cells were washed with 5 mL PBS. […] The media was aspirated, and the cell pellet was resuspended in 10 mL of growth media. Cell number was determined using a hemacytometer. […] For small scale transfections of up to 20 wells, the pGLoSensor-22F cAMP plasmid (Promega, Cat #: E2301) (2 apg): […] Cat #: […] P2271) ratio was diluted to a final concentration of 12.6 ng/μL (total plasmid) in Opti-MEM I reduced-serum medium (Life Technologies, Cat #: 1985062). Next, 6 μL of FuGENE HD transfection reagent (Promega, Cat #: E2311) was added to 160 μL of diluted plasmid and mixed carefully by gentle pipetting. The complex was incubated at room temperature for 0 to 10 minutes, and then 8 μL of the complex was added per well of a 96 well white assay plate (Costar, Cat #: 3917) and gently mixed without disturbing the cell monolayer. […] Following incubation, cells were treated and analyzed. For larger scale transfections, the aforementioned steps were scaled up accordingly, and cells were frozen following the last incubation. In order to prepare frozen transfected CHO-K cells, the media was aspirated from culture flasks and cells were rinsed with 5 mL PBS. […] Cell number was determined using a hemacytometer. The media was aspirated, and the cell pellet was resuspended in freezing media (Millipore, cat #: S-002-SF) at 2.5×10^4 cells/vial. Transfected cells were incubated overnight at -80° C. before transfer to liquid nitrogen for long term storage. […] SH30071.03)). […] In preparation for cAMP measurement, the cells were equilibrated with the GloSensor cAMP reagent prior to treatment. For equilibration, the medium was carefully removed from the individual well. Next, 100 μL of equilibration medium ([…] of Glosensor Reagent stock solution (Promega, Cat #: E291), 10% FBS (Hydone, Cat #: SH30071.03) and 88% CO2 independent medium (Life Technologies, Cat #: 18045088)) was added per well of the 96-well plate, and added to the side of each well. The plate was then incubated for 2 hours at room temperature. A first pre-read measurement was taken using a microplate reader (MicroLumat Plus). Plates were incubated for an additional 10 minutes at room temperature, followed by a second pre-read measurement. […] Following treatment, each plate was read every 5 minutes for the duration of the assay using a microplate reader (MicroLumat Plus). In order to determine the fold change in cAMP relative to the control, the transfection efficiency was first determined by dividing the second pre-read measurement by the average of the corresponding pre-read measurements. Next, the normalized relative light units (RLUs) of the samples were determined by dividing the plate read measurement by the transfection efficiency. The fold change in cAMP relative to the control was then determined by dividing the normalized RLU of the samples by the normalized RLU of the control. The cAMP assay was validated using free treprostinil. […] Luminescence was then measured at room temperature. […] Nebulizer Aeroneb Pro (Aerogen) was used to nebulize treprostinil derivative compositions. Desired volume of the formulation (usually 3 mL) was loaded to the mesh head of the nebulizer. […]

CHO-K1 cells = assay: CHO-K1 cell proliferation assay (Presto Blue); conditions: for Effect on cell proliferation, CHO-K1 Cells: detectable cell inhibition: Table 9, unformulated alkyl esters, (0.195 μM-25 μM), 48 hour incubation
Protocol: CHO-K1 cells were harvested when the cell monolayer was 50-90% confluent (use passage 4-11). Media was aspirated out of the flask, and cells were rinsed with 2 mL of F12 media. Next, 1 mL of pre-warmed (37° C.) 0.25% trypsin-EDTA (Life Technologies, Cat#: 25300054) was added, and cells were dislodged from the flask by tapping it on the side. Complete growth media (F12 (Life Technologies, Cat #: 31765092)+10% FBS (Hyclone, Cat #: SH30071.03)+1× Pen-Strep (Life Technologies, cat #15140-122) was then added at a volume of 10 mL. Cells were centrifuged at 250×g for 5 minutes at room temperature, and the media was aspirated. The cell pellet was resuspended in 10 mL complete growth media. Cell number was determined using a hemacytometer. Cells were then seeded at 2000 cells per well of a 96-well plate in 100 μL of complete growth media. The plate was incubated overnight at 37° C. and 5% CO2 in a water-jacketed incubator.
The next day, 80 μL of fresh complete media was added to each well, and CHO-K1 cells were challenged with treprostinil compound and composition treatments. The working solutions were prepared at 10× concentration, and following 2 fold serial dilutions, 20 μL aliquots were added per well to arrive at a final 1× concentration. Following a 48 hour incubation at 37° C. and 5% CO2 in a water-jacketed incubator, the inhibitory effect on cell proliferation was determined. Plates were analyzed using 20 μL of Presto Blue reagent (Life Technologies, cat #: A13262) per well. The reagent was mixed, and plates were incubated for 1 hour at 37° C. and 5% CO2 in a waterjacketed incubator. Plates were read using either a CytoFluor Series 4000 (PerSeptive BioSystems) or Synergy Neo microplate reader (BioTek) with emission λ: 590 nm and excitation λ: 560 nm. […]
CHO-K1 cells were challenged with treprostinil alkyl esters, i.e., TR compounds of Formula (A), having the following R2 groups: […]
C2, C3, C4, C5, C6, C8, C10 or C12 straight chain alkyl, at dosages ranging from 0.098 μM to 25 μM. Following a 48 hour incubation period, the inhibitory effect on cell proliferation was determined.
Following a 72 hour incubation period, the inhibitory effect on cell proliferation was determined. Following a 48 hour incubation period, the inhibitory effect on cell proliferation was determined. […]

[1] = 4.5 hr incubation time, read-out: EC50 (μM) 4.5 hr
[2] = 6.0 hr incubation time, read-out: EC50 (μM) 6.0 hr
[3] = 8.0 hr incubation time, read-out: EC50 (μM) 8.0 hr
[4] = EC50 (μM) 0.5 hr, 0.5 hr incubation time
[5] = EC50 (μM) 1.0 hr, 1.0 hr incubation time
[6] = EC50 (μM) 2.0 hr, 2.0 hr incubation time
[7] = EC50 (μM) 3.0 hr, 3.0 hr incubation time
[8] = EC50 (μM) 4.0 hr, 4.0 hr incubation time
[9] = EC50 (μM) 5.0 hr, 5.0 hr incubation time
[10] = EC50 (μM) 7.0 hr, 7.0 hr incubation time

T1 sequence (P43116 whole entry): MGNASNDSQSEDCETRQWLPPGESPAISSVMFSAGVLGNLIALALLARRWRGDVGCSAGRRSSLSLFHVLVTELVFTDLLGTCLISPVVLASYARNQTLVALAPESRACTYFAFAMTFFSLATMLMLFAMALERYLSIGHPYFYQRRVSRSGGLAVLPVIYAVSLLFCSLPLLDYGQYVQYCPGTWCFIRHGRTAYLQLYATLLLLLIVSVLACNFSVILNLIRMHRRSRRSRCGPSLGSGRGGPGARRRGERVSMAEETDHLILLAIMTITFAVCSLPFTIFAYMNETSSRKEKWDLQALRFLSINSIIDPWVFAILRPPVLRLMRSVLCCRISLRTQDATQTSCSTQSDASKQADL

SMILES: CCCCCCCCOC(=O)COc1cccc2c1C[C@H]1C[C@@H](O)[C@H](CC[C@@H](O)CCCCC)[C@H]1C2 [Compound C8-TR, treprostinil octyl ester]
- EC50 (EP2 prostanoid receptor; [1]): 1.41 µM
- EC50 (EP2 prostanoid receptor; [2]): 1.4 µM
- EC50 (EP2 prostanoid receptor; [3]): 1.09 µM
- EC50 (EP2 prostanoid receptor; [4]): 3.69 µM
- EC50 (EP2 prostanoid receptor; [5]): 3.39 µM
- EC50 (EP2 prostanoid receptor; [6]): 1.69 µM
- EC50 (EP2 prostanoid receptor; [7]): 1.42 µM
- EC50 (EP2 prostanoid receptor; [8]): 1.53 µM
- EC50 (EP2 prostanoid receptor; [9]): 1.4 µM
- EC50 (EP2 prostanoid receptor; [10]): 1.34 µM
- Effect on cell proliferation, CHO-K1 Cells: detectable cell inhibition (CHO-K1 cells): 25 µM
- inhibition of CHO-K1 cell proliferation (CHO-K1 cells; unformulated alkyl esters, highest concentration, 48 hour): showed inhibition of cell proliferation

SMILES: CCCCCCCCCCCCOC(=O)COc1cccc2c1C[C@H]1C[C@@H](O)[C@H](CC[C@@H](O)CCCCC)[C@H]1C2 [Compound C12-TR, dodecyl-treprostinil]
- EC50 (EP2 prostanoid receptor; [1]): 3.17 µM
- EC50 (EP2 prostanoid receptor; [2]): 3.25 µM
- EC50 (EP2 prostanoid receptor; [3]): 2.9 µM
- EC50 (EP2 prostanoid receptor; [4]): 4.98 µM
- EC50 (EP2 prostanoid receptor; [5]): 5.35 µM
- EC50 (EP2 prostanoid receptor; [6]): 4.54 µM
- EC50 (EP2 prostanoid receptor; [7]): 4.07 µM
- EC50 (EP2 prostanoid receptor; [8]): 3.13 µM
- EC50 (EP2 prostanoid receptor; [9]): 2.94 µM
- EC50 (EP2 prostanoid receptor; [10]): 3.17 µM
- Effect on cell proliferation, CHO-K1 Cells: detectable cell inhibition (CHO-K1 cells): No detectable cell inhibition
